Test results reported in the supplement of paper PMC13207355.
Counter-ions that a name gives are not always drawn.

What was measured:
Details in all cases: exposure time: 72 h
E13 [1] = patient-derived glioblastoma stem cells of classical subtype; assay: surviving fraction (nuclei count normalised to DMSO); higher = more cells surviving (less toxic)
E21 [2] = patient-derived glioblastoma stem cells of mesenchymal subtype; assay: as above
E28 [3] = patient-derived glioblastoma stem cells of classical subtype; assay: as above
E31 [4] = patient-derived glioblastoma stem cells of proneural subtype; assay: as above
E34 [5] = patient-derived glioblastoma stem cells of proneural subtype; assay: as above
E57 [6] = patient-derived glioblastoma stem cells of mesenchymal subtype; assay: as above
FT3469 [7] = normal neural stem cell line; assay: as above
E13 [8] = assay: phenotypic distance (Euclidean, principal components) from DMSO controls (arbitrary units); higher = stronger morphological change
E21 [9] = assay: as above
E28 [10] = assay: as above
E31 [11] = assay: as above
E34 [12] = assay: as above
E57 [13] = assay: as above
FT3469 [14] = assay: as above
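Throughout, for phenotypic distance (Euclidean, principal components) from DMSO controls: cell Painting imaging in 384-well plates, CellProfiler features reduced to at least 20 principal components, Euclidean distance versus same-plate DMSO vehicle wells (0.1% v/v), median over six images per well.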
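Throughout, for surviving fraction (nuclei count normalised to DMSO): nuclei counted by high-content imaging of Hoechst-stained cells in laminin-coated 384-well plates, relative to 0.1% DMSO vehicle wells, with staurosporine as cell-death control.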

C=C[C@H]1CN2CC[C@H]1C[C@@H]2[C@@H](O)c1ccnc2ccc(OC)cc12 [Quinidine hydrochloride monohydrate]
surviving fraction (E13 [1]; 4.1 nM): 0.965 | surviving fraction (E13 [1]; 12.3 nM): 1.04 | surviving fraction (E13 [1]; 37 nM): 1.06 | surviving fraction (E13 [1]; 111.1 nM): 1.03 | surviving fraction (E13 [1]; 333.3 nM): 0.954 | surviving fraction (E13 [1]; 1000 nM): 1.09 | surviving fraction (E13 [1]; 3000 nM): 1.01 | surviving fraction (E21 [2]; 4.1 nM): 0.736 | surviving fraction (E21 [2]; 12.3 nM): 1.03 | surviving fraction (E21 [2]; 37 nM): 0.863 | surviving fraction (E21 [2]; 111.1 nM): 1.03 | surviving fraction (E21 [2]; 333.3 nM): 1 | surviving fraction (E21 [2]; 1000 nM): 0.964 | surviving fraction (E21 [2]; 3000 nM): 0.865 | surviving fraction (E28 [3]; 4.1 nM): 1.12 | surviving fraction (E28 [3]; 12.3 nM): 0.991 | surviving fraction (E28 [3]; 37 nM): 1.14 | surviving fraction (E28 [3]; 111.1 nM): 1.02 | surviving fraction (E28 [3]; 333.3 nM): 1.15 | surviving fraction (E28 [3]; 1000 nM): 1.07 | surviving fraction (E28 [3]; 3000 nM): 1.2 | surviving fraction (E31 [4]; 4.1 nM): 1.04 | surviving fraction (E31 [4]; 12.3 nM): 0.915 | surviving fraction (E31 [4]; 37 nM): 0.941 | surviving fraction (E31 [4]; 111.1 nM): 0.942 | surviving fraction (E31 [4]; 333.3 nM): 1.04 | surviving fraction (E31 [4]; 1000 nM): 0.944 | surviving fraction (E31 [4]; 3000 nM): 1.09 | surviving fraction (E34 [5]; 4.1 nM): 1.06 | surviving fraction (E34 [5]; 12.3 nM): 0.922 | surviving fraction (E34 [5]; 37 nM): 0.904 | surviving fraction (E34 [5]; 111.1 nM): 0.914 | surviving fraction (E34 [5]; 333.3 nM): 1.02 | surviving fraction (E34 [5]; 1000 nM): 0.91 | surviving fraction (E34 [5]; 3000 nM): 0.984 | surviving fraction (E57 [6]; 4.1 nM): 1.05 | surviving fraction (E57 [6]; 12.3 nM): 1.09 | surviving fraction (E57 [6]; 37 nM): 1.04 | surviving fraction (E57 [6]; 111.1 nM): 1.07 | surviving fraction (E57 [6]; 333.3 nM): 1.05 | surviving fraction (E57 [6]; 1000 nM): 1.09 | surviving fraction (E57 [6]; 3000 nM): 1.12 | surviving fraction (FT3469 [7]; 4.1 nM): 0.974 | surviving fraction (FT3469 [7]; 12.3 nM): 0.955 | surviving fraction (FT3469 [7]; 37 nM): 1.03 | surviving fraction (FT3469 [7]; 111.1 nM): 1.14 | surviving fraction (FT3469 [7]; 333.3 nM): 1.03 | surviving fraction (FT3469 [7]; 1000 nM): 0.998 | surviving fraction (FT3469 [7]; 3000 nM): 0.957 | phenotypic distance (E13 [8]; 4.1 nM): 2.06 | phenotypic distance (E13 [8]; 12.3 nM): 2.74 | phenotypic distance (E13 [8]; 37 nM): 0.288 | phenotypic distance (E13 [8]; 111.1 nM): 0.43 | phenotypic distance (E13 [8]; 333.3 nM): 3.29 | phenotypic distance (E13 [8]; 1000 nM): 0.415 | phenotypic distance (E13 [8]; 3000 nM): 0.498 | phenotypic distance (E21 [9]; 4.1 nM): 1.42 | phenotypic distance (E21 [9]; 12.3 nM): 0.785 | phenotypic distance (E21 [9]; 37 nM): 0.783 | phenotypic distance (E21 [9]; 111.1 nM): 0.852 | phenotypic distance (E21 [9]; 333.3 nM): 0.814 | phenotypic distance (E21 [9]; 1000 nM): 0.565 | phenotypic distance (E21 [9]; 3000 nM): 1.06 | phenotypic distance (E28 [10]; 4.1 nM): 0.692 | phenotypic distance (E28 [10]; 12.3 nM): 0.479 | phenotypic distance (E28 [10]; 37 nM): 0.471 | phenotypic distance (E28 [10]; 111.1 nM): 0.837 | phenotypic distance (E28 [10]; 333.3 nM): 0.667 | phenotypic distance (E28 [10]; 1000 nM): 0.843 | phenotypic distance (E28 [10]; 3000 nM): 0.738 | phenotypic distance (E31 [11]; 4.1 nM): 1.52 | phenotypic distance (E31 [11]; 12.3 nM): 0.739 | phenotypic distance (E31 [11]; 37 nM): 0.504 | phenotypic distance (E31 [11]; 111.1 nM): 0.428 | phenotypic distance (E31 [11]; 333.3 nM): 0.941 | phenotypic distance (E31 [11]; 1000 nM): 0.478 | phenotypic distance (E31 [11]; 3000 nM): 0.676 | phenotypic distance (E34 [12]; 4.1 nM): 1.26 | phenotypic distance (E34 [12]; 12.3 nM): 0.809 | phenotypic distance (E34 [12]; 37 nM): 1.05 | phenotypic distance (E34 [12]; 111.1 nM): 0.841 | phenotypic distance (E34 [12]; 333.3 nM): 0.778 | phenotypic distance (E34 [12]; 1000 nM): 0.516 | phenotypic distance (E34 [12]; 3000 nM): 0.396 | phenotypic distance (E57 [13]; 4.1 nM): 0.629 | phenotypic distance (E57 [13]; 12.3 nM): 0.932 | phenotypic distance (E57 [13]; 37 nM): 0.42 | phenotypic distance (E57 [13]; 111.1 nM): 5.48 | phenotypic distance (E57 [13]; 333.3 nM): 0.376 | phenotypic distance (E57 [13]; 1000 nM): 0.318 | phenotypic distance (E57 [13]; 3000 nM): 0.734 | phenotypic distance (FT3469 [14]; 4.1 nM): 1.14 | phenotypic distance (FT3469 [14]; 12.3 nM): 0.621 | phenotypic distance (FT3469 [14]; 37 nM): 0.809 | phenotypic distance (FT3469 [14]; 111.1 nM): 0.891 | phenotypic distance (FT3469 [14]; 333.3 nM): 0.965 | phenotypic distance (FT3469 [14]; 1000 nM): 0.266 | phenotypic distance (FT3469 [14]; 3000 nM): 0.69

CCC(=O)OCC(=O)[C@@]1(OC(=O)CC)[C@H](C)C[C@H]2[C@H]3[C@H]([C@@H](O)C[C@@]21C)[C@@]1(C)C=CC(=O)C=C1C[C@H]3Cl [Alclometasone dipropionate]
surviving fraction (E13 [1]; 4.1 nM): 0.975 | surviving fraction (E13 [1]; 12.3 nM): 0.888 | surviving fraction (E13 [1]; 37 nM): 0.926 | surviving fraction (E13 [1]; 111.1 nM): 0.859 | surviving fraction (E13 [1]; 333.3 nM): 0.951 | surviving fraction (E13 [1]; 1000 nM): 0.974 | surviving fraction (E13 [1]; 3000 nM): 0.671 | surviving fraction (E21 [2]; 4.1 nM): 1.32 | surviving fraction (E21 [2]; 12.3 nM): 1.26 | surviving fraction (E21 [2]; 37 nM): 1.21 | surviving fraction (E21 [2]; 111.1 nM): 1.39 | surviving fraction (E21 [2]; 333.3 nM): 1.2 | surviving fraction (E21 [2]; 1000 nM): 1.2 | surviving fraction (E21 [2]; 3000 nM): 1.1 | surviving fraction (E28 [3]; 4.1 nM): 1.25 | surviving fraction (E28 [3]; 12.3 nM): 0.854 | surviving fraction (E28 [3]; 37 nM): 1.17 | surviving fraction (E28 [3]; 111.1 nM): 0.928 | surviving fraction (E28 [3]; 333.3 nM): 1.08 | surviving fraction (E28 [3]; 1000 nM): 1.38 | surviving fraction (E28 [3]; 3000 nM): 0.939 | surviving fraction (E31 [4]; 4.1 nM): 1.3 | surviving fraction (E31 [4]; 12.3 nM): 1.46 | surviving fraction (E31 [4]; 37 nM): 1.4 | surviving fraction (E31 [4]; 111.1 nM): 1.41 | surviving fraction (E31 [4]; 333.3 nM): 1.12 | surviving fraction (E31 [4]; 1000 nM): 1.19 | surviving fraction (E31 [4]; 3000 nM): 1.23 | surviving fraction (E34 [5]; 4.1 nM): 1.1 | surviving fraction (E34 [5]; 12.3 nM): 1.15 | surviving fraction (E34 [5]; 37 nM): 1.1 | surviving fraction (E34 [5]; 111.1 nM): 1.1 | surviving fraction (E34 [5]; 333.3 nM): 0.991 | surviving fraction (E34 [5]; 1000 nM): 1.06 | surviving fraction (E34 [5]; 3000 nM): 0.984 | surviving fraction (E57 [6]; 4.1 nM): 1.12 | surviving fraction (E57 [6]; 12.3 nM): 1.18 | surviving fraction (E57 [6]; 37 nM): 1.1 | surviving fraction (E57 [6]; 111.1 nM): 1.07 | surviving fraction (E57 [6]; 333.3 nM): 1.11 | surviving fraction (E57 [6]; 1000 nM): 1.14 | surviving fraction (E57 [6]; 3000 nM): 1.13 | surviving fraction (FT3469 [7]; 4.1 nM): 1.16 | surviving fraction (FT3469 [7]; 12.3 nM): 1.29 | surviving fraction (FT3469 [7]; 37 nM): 1.33 | surviving fraction (FT3469 [7]; 111.1 nM): 1.15 | surviving fraction (FT3469 [7]; 333.3 nM): 1.07 | surviving fraction (FT3469 [7]; 1000 nM): 1.19 | surviving fraction (FT3469 [7]; 3000 nM): 1.02 | phenotypic distance (E13 [8]; 4.1 nM): 1.28 | phenotypic distance (E13 [8]; 12.3 nM): 1.12 | phenotypic distance (E13 [8]; 37 nM): 1.27 | phenotypic distance (E13 [8]; 111.1 nM): 1.15 | phenotypic distance (E13 [8]; 333.3 nM): 1.25 | phenotypic distance (E13 [8]; 1000 nM): 1.24 | phenotypic distance (E13 [8]; 3000 nM): 1.47 | phenotypic distance (E21 [9]; 4.1 nM): 1.94 | phenotypic distance (E21 [9]; 12.3 nM): 2.13 | phenotypic distance (E21 [9]; 37 nM): 2.45 | phenotypic distance (E21 [9]; 111.1 nM): 3.04 | phenotypic distance (E21 [9]; 333.3 nM): 2.13 | phenotypic distance (E21 [9]; 1000 nM): 2.23 | phenotypic distance (E21 [9]; 3000 nM): 2.27 | phenotypic distance (E28 [10]; 4.1 nM): 0.573 | phenotypic distance (E28 [10]; 12.3 nM): 0.69 | phenotypic distance (E28 [10]; 37 nM): 0.865 | phenotypic distance (E28 [10]; 111.1 nM): 0.821 | phenotypic distance (E28 [10]; 333.3 nM): 0.465 | phenotypic distance (E28 [10]; 1000 nM): 1.06 | phenotypic distance (E28 [10]; 3000 nM): 0.433 | phenotypic distance (E31 [11]; 4.1 nM): 2.71 | phenotypic distance (E31 [11]; 12.3 nM): 4.05 | phenotypic distance (E31 [11]; 37 nM): 4.11 | phenotypic distance (E31 [11]; 111.1 nM): 3.84 | phenotypic distance (E31 [11]; 333.3 nM): 2.94 | phenotypic distance (E31 [11]; 1000 nM): 3.4 | phenotypic distance (E31 [11]; 3000 nM): 3.3 | phenotypic distance (E34 [12]; 4.1 nM): 0.626 | phenotypic distance (E34 [12]; 12.3 nM): 1.12 | phenotypic distance (E34 [12]; 37 nM): 0.662 | phenotypic distance (E34 [12]; 111.1 nM): 1.42 | phenotypic distance (E34 [12]; 333.3 nM): 1.36 | phenotypic distance (E34 [12]; 1000 nM): 1.38 | phenotypic distance (E34 [12]; 3000 nM): 1.48 | phenotypic distance (E57 [13]; 4.1 nM): 1.91 | phenotypic distance (E57 [13]; 12.3 nM): 2.63 | phenotypic distance (E57 [13]; 37 nM): 2.58 | phenotypic distance (E57 [13]; 111.1 nM): 2.62 | phenotypic distance (E57 [13]; 333.3 nM): 3.15 | phenotypic distance (E57 [13]; 1000 nM): 3.25 | phenotypic distance (E57 [13]; 3000 nM): 2.81 | phenotypic distance (FT3469 [14]; 4.1 nM): 1.11 | phenotypic distance (FT3469 [14]; 12.3 nM): 1.62 | phenotypic distance (FT3469 [14]; 37 nM): 1.67 | phenotypic distance (FT3469 [14]; 111.1 nM): 2.12 | phenotypic distance (FT3469 [14]; 333.3 nM): 1.8 | phenotypic distance (FT3469 [14]; 1000 nM): 1.92 | phenotypic distance (FT3469 [14]; 3000 nM): 1.23
